Here are results for one compound from patent publication US12569457B2, “Coated beta hydroxybutyric acid crystal and methods for producing the same” (NANJING NUTRABUILDING BIO-TECH CO., LTD., priority 2021, dated 2026).

The nature of the data set: Stability test of coated BHB free acid crystal pellets/granules vs BHB free acid crystal at 25° C./60% RH (moisture and dipolymer content). It counts as physicochemical. As for the experimental part: The coated BHB free acid crystal pellets/granules were subjected to a controlled temperature of 25° C./60% RH. The products were subjected to stability testing at the following time intervals: 0 time, 3 months, 6 months, 9 months, and 12 months.
The preparation method of such coated BHB free acid crystal pellets/granules includes the following steps: • (1) Wet granulation: Mix 3 kg of BHB free acid crystals and 0.05 kg of microcrystalline fiber, add 0.06 kg of water for wet granulation to obtain wet materials. The stirring motor rotating speed of the wet granulator is adjusted to 45 r/min, the speed of the shearing head is 800 r/min and the feeding speed of the binder is 5 r/min; • (2) Extrusion: Extrude the wet material obtained in step (1) by the extruder with the sieve plate aperture of 0.8 mm, to obtain strip materials with the same diameter. The screw speed of the extruder is adjusted to 150 r/min. […] Obtain strip materials with the same diameter; • (3) Spheronization: Sphere the strip materials obtained in step (2) at the high speed through the spheronization device to get pellets/granules of the same size and good roundness. The rotation speed of the spheronization device is adjusted to 1000 r/min and the time of spheronization is 6 min; • (4) Drying: Dry the pellets/granules prepared in step (3) to get BHB free acid crystal pellets/granules. The drying temperature is adjusted to 35° C. and the drying time is 25 min; • (5) Coating: Coating the BHB free acid crystal pellets/granules prepared in step (4) by Wurster coater with coating material, which is dissolved in water or ethanol at a solid content of 20% for use. The air inlet speed of the Wurster coater is 25 Hz and the coating temperature is 38° C., and the feeding speed of the coating liquid is 2 r/min. Drying for 15 min after coating is completed to obtain the coated BHB free acid crystal.The coated BHB free acid crystal pellets/granules were subjected to a controlled temperature of 25° C./60% RH. The products were subjected to stability testing at the following time intervals: 0 time, 3 months, 6 months, 9 months, and 12 months.

With `CC(O)CC(=O)O` (stereo not drawn) [BHB Free Acid Crystal, beta hydroxybutyric acid], the “Dipolymer Content” value reads like this: (0 time) 0.38%; (3 months) 1.42%; (6 months) 4.29%; (9 months) 10.65%; (12 months) 29.07%. In addition, the “Moisture Content” value (0 time) is 0.50%; the “Moisture Content” value (3 months) stood at 2.14%; the “Moisture Content” value (6 months) is 10.63%; the “Moisture Content” value (9 months) was determined as 18.16%; the “Moisture Content” value (12 months) is recorded as 29.97%.
